Patent US9334269B2, “Carboxamides as inhibitors of voltage-gated sodium channels” (AMGEN INC., priority 2010, dated 2016)

target: T1, human Nav1.7 (hNav1.7) (Homo sapiens, UniProt Q15858); test: hNav1.7 whole-cell patch-clamp electrophysiology (automated PatchXpress 7000A or manual) in stably expressing 293 cells; assay type: cell-based; conditions: average IC50
T1 construct: expressed in transfected cells
Protocol: Compounds were tested on human Nav1.7 (hNav1.7) expressed stably in 293 cells, which have no endogenous sodium channels. Two forms of whole-cell patch-clamp assays were used. In both, peak current through Nav1.7 was evoked by a depolarizing voltage pulse, and currents were monitored as a function of time in response to exposure to several different concentrations of drug. Automated electrophysiology uses the PatchXpress 7000A system. Up to sixteen cells at a time were voltage-clamped in parallel, and the steady-state voltage dependence of inactivation was determined experimentally for each cell. For each cell, fractional inactivation was set at 20%, and peak current through Nav1.7 as a function of time was measured in response to increasing concentrations of test compound. Manual electrophysiology refers to conventional whole-cell patch-clamping (Hamill et al., 1981). After formation of the whole-cell clamp, cells were lifted off the bottom of the dish with the patch pipette and positioned directly in front of an array of glass microperfusion tubes each with internal diameter about 250 microns, with individual compound concentrations flowing from each tube. Current as a function of time in response to increasing drug concentrations was measured with Nav1.7 fully in the resting state (holding voltage set to −140 mV) and on the same cells with the holding voltage set to produce about 20% inactivation. Compounds were not applied for a prespecified time, but for as long as required to achieve a stable level of block. For both forms of electrophysiology, offline analysis was used to correct for rundown of channel current and to determine percent inhibition as a function of drug concentration. IC50 were determined by fitting to the Hill equation.

T1 sequence (Q15858 whole entry): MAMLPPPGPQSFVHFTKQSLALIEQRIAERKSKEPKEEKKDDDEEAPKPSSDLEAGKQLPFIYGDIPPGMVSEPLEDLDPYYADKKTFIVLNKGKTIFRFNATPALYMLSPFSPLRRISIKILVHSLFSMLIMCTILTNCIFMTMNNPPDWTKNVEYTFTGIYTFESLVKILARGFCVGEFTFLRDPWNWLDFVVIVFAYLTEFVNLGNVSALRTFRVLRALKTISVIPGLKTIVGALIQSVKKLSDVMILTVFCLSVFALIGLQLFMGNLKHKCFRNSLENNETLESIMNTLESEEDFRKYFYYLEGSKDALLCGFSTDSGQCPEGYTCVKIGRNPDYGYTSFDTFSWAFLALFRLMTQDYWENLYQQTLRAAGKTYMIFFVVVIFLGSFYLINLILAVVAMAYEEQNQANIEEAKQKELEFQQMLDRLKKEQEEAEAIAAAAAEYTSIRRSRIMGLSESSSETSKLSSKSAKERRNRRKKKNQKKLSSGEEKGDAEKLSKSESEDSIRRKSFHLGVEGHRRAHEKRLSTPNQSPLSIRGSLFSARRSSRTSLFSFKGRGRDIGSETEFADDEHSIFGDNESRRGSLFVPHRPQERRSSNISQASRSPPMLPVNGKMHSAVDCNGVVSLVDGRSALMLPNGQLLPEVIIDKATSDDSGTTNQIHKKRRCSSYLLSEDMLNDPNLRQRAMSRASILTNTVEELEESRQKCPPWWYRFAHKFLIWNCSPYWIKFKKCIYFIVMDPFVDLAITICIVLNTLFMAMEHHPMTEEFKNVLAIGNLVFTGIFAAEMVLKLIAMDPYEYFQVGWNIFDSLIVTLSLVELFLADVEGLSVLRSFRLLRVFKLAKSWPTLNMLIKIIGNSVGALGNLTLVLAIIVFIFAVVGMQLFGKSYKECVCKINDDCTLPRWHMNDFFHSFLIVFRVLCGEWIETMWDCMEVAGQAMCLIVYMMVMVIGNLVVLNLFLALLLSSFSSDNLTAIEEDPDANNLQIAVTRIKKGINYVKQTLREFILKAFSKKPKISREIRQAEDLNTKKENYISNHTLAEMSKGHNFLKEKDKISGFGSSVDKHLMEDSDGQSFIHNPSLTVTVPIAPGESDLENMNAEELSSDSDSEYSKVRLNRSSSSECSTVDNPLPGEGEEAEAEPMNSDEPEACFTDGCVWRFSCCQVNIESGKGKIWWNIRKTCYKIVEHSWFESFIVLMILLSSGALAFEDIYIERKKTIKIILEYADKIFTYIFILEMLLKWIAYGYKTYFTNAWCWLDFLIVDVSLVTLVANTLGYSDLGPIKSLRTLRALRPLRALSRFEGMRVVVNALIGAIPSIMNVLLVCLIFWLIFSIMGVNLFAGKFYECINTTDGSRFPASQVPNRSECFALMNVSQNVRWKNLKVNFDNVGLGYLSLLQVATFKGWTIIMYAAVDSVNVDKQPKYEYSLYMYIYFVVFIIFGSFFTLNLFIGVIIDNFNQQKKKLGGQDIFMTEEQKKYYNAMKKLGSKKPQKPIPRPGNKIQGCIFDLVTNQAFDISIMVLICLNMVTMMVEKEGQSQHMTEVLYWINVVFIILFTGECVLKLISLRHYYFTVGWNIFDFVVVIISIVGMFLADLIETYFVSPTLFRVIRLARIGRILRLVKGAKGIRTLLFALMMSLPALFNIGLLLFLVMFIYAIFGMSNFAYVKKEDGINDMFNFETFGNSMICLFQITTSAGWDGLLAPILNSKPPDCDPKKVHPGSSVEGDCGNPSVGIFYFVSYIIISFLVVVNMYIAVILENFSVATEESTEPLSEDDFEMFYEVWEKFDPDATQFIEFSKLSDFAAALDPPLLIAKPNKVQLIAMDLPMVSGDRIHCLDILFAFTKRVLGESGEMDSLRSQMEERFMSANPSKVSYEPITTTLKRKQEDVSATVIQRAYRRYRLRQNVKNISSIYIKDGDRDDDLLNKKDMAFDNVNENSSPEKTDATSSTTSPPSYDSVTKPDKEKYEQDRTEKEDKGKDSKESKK

Row | IC50 | Structure (SMILES)
1 | 21.4 µM | CNC(=O)c1cccc(Nc2ncnc(N3CCN(c4ccc(F)c(Cl)c4)CC3)n2)c1 [Example 271]
2 | 18.1 µM | CNC(=O)c1cccc(Nc2ncnc(N3CC(C)(Oc4ccccc4)C3)n2)c1 [Example 263]
3 | 19.2 µM | CNC(=O)c1cccc(Nc2ncnc(N3CCc4oc(-c5ccccc5)cc4C3)n2)c1 [Example 265]
4 | 27.7 µM | CNC(=O)c1cccc(Nc2ncnc(N(C)Cc3nc(-c4ccccc4)no3)n2)c1 [Example 280]
5 | 21.1 µM | CNC(=O)c1cccc(Nc2ncnc(N3CC(Oc4ccc(F)cc4)C3)n2)c1F [Example 270]
6 | 26.4 µM | CNC(=O)c1cccc(Nc2ncnc(N3CCc4ccc(Cl)cc4C3)n2)c1 [Example 279]
7 | 27.9 µM | CNC(=O)c1cccc(Nc2ncnc(N3CCc4cccc(OC)c4C3)n2)c1 [Example 281]
8 | 21.7 µM | CNC(=O)c1cccc(Nc2ncnc(N3CC(OCc4ccc(F)cc4)C3)n2)c1 [Example 272]

same assay, conditions: average IC50, human Nav1.7

Row | Structure (SMILES) | IC50
9 | CNC(=O)c1cccc(Nc2ncnc(NCCOc3ccc(Cl)cc3)n2)c1 [Example 236] | 10.4 µM
10 | CNC(=O)c1cccc(Nc2cc(N3CC(Oc4ccc(F)cc4)C3)ncn2)c1 [Example 218] | 8.68 µM
11 | CNC(=O)c1cc(Nc2ncnc(NCCCOc3ccc(OC(F)(F)F)cc3)n2)ccc1F [Example 64] | 0.83 µM
12 | CNC(=O)c1cccc(Nc2ncnc(N3CC(COc4cccc(OC)c4)C3)n2)c1 [Example 244] | 12 µM
13 | CNC(=O)c1cccc(Nc2ncnc(N3CC(COc4ccc(Cl)cc4C)C3)n2)c1 [Example 73] | 0.9 µM
14 | CNC(=O)c1cccc(Nc2ncnc(N3CCC4(CC3)OCc3ccccc34)n2)c1 [Example 259] | 17.1 µM
15 | CNC(=O)c1cccc(Nc2ncnc(N3CCc4cc(F)ccc4C3)n2)c1 [Example 176] | 4.67 µM
16 | CNC(=O)c1cccc(Nc2ncnc(N3CCN(c4cccc(C)c4)CC3)n2)c1 [Example 114] | 1.83 µM
17 | CNC(=O)c1cccc(Nc2ncnc(N3CC(COc4ccc(Cl)cc4Cl)C3)n2)c1 [Example 132] | 2.55 µM
18 | CNC(=O)c1cccc(Nc2ncnc(N3CC(Oc4ccc(Cl)cc4C)C3)n2)c1 [Example 20] | 0.32 µM
19 | CNC(=O)c1cccc(Nc2ncnc(N3CCc4ccc(OC)cc4C3)n2)c1 [Example 220] | 8.85 µM
20 | CNC(=O)c1cccc(Nc2ncnc(N3CCN(c4ccc(C)c(C)c4)CC3)n2)c1 [Example 53] | 0.69 µM
21 | CNC(=O)c1cccc(Nc2ncnc(N[C@H](C)CCc3ccccc3)n2)c1 [Example 120] | 2.09 µM
22 | CNC(=O)c1cccc(Nc2ncnc(N3CC(Oc4ccccc4OC)C3)n2)c1 [Example 204] | 7.42 µM
23 | CNC(=O)c1cccc(Nc2ncnc(N3CCc4ccccc4C3)n2)c1 [Example 243] | 11.5 µM
24 | CNC(=O)c1cccc(Nc2ncnc(N3CC(COc4cccc(F)c4)C3)n2)c1 [Example 242] | 11.2 µM
25 | CNC(=O)c1cc(Nc2ncnc(N3CC(COc4ccc(C(F)(F)F)cc4)C3)n2)ccc1Cl [Example 96] | 1.39 µM
26 | CNC(=O)c1cccc(Nc2ncnc(N3CCC(c4nc(C(C)C)no4)CC3)n2)c1 [Example 231] | 9.66 µM
27 | CNC(=O)c1cc(F)cc(Nc2ncnc(N3CC(Oc4ccc(F)c(Cl)c4)C3)n2)c1 [Example 121] | 2.09 µM
28 | CNC(=O)c1cccc(Nc2nccc(N3CC(Oc4ccc(Cl)c(Cl)c4)C3)n2)c1 [Example 59] | 0.78 µM
29 | CNC(=O)c1cccc(Nc2ncnc(N3CC(COc4ccc(Cl)c5cccnc45)C3)n2)c1 [Example 255] | 16 µM
30 | NC(=O)c1cccc(Nc2ncnc(N3CC(Oc4ccc(F)cc4)C3)n2)c1 [Example 237] | 10.7 µM
31 | CNC(=O)c1cccc(Nc2ncnc(N3CC(Oc4cc(C)ccc4Cl)C3)n2)c1 [Example 66] | 0.84 µM
32 | CNC(=O)c1cc(Nc2ncnc(N3CC(Oc4ccc(Cl)cc4)C3)n2)ccc1Cl [Example 162] | 3.69 µM
33 | CNC(=O)c1cccc(Nc2ncnc(N3CCc4cc(OC)ccc4C3)n2)c1 [Example 222] | 8.96 µM
34 | CNC(=O)c1cccc(Nc2ncnc(N3CC(Oc4ccccc4-c4ccccc4)C3)n2)c1 [Example 217] | 8.66 µM
35 | CNC(=O)c1cccc(Nc2ncnc(N3CC(Oc4cccc(-c5ccccc5)c4)C3)n2)c1 [Example 199] | 7.02 µM
36 | CNC(=O)c1cccc(Nc2ncnc(N3CCc4c(C#N)cccc4C3)n2)c1 [Example 72] | 0.9 µM

More lines, now with the values ahead:

Row | IC50 | Structure (SMILES)
37 | 0.63 µM | CNC(=O)c1cccc(Nc2ncnc(N3CCC(Oc4ccccc4)CC3)n2)c1 [Example 45]
38 | 5.44 µM | CNC(=O)c1cccc(Nc2ncnc(N3CC(COc4cccc(C(F)(F)F)c4)C3)n2)c1 [Example 188]
39 | 2.49 µM | CNC(=O)c1cccc(Nc2ncnc(N3CCC(OCc4ccc(OC(F)(F)F)cc4)CC3)n2)c1 [Example 131]
40 | 0.82 µM | CNC(=O)c1cccc(Nc2ncnc(N3CC(Oc4cccc(C(F)(F)F)c4)C3)n2)c1 [Example 62]
41 | 10.8 µM | CNC(=O)c1cccc(Nc2ncnc(N3CCC(OCc4cccc(C(F)(F)F)c4)CC3)n2)c1 [Example 239]
42 | 4.63 µM | CNC(=O)c1cccc(Nc2ncnc(N3CCC(Oc4ccccn4)CC3)n2)c1 [Example 175]
43 | 0.65 µM | CNC(=O)c1cccc(Nc2ncnc(N3CCC(Oc4cccc(F)c4)CC3)n2)c1 [Example 48]
44 | 5.56 µM | CNC(=O)c1cccc(Nc2ncnc(N3CC(COCc4ccc(C(F)(F)F)cc4)C3)n2)c1 [Example 189]
45 | 6.4 µM | CNC(=O)c1cccc(Nc2ncnc(N3CCC(Cc4ccc(F)cc4)CC3)n2)c1 [Example 196]
46 | 9.44 µM | CNC(=O)c1cccc(Nc2ncnc(N3CC(COc4ccccc4OC(F)(F)F)C3)n2)c1 [Example 229]
47 | 8.47 µM | CNC(=O)c1cccc(Nc2ncnc(N3CC(Oc4ccc(OCc5ccccc5)cc4)C3)n2)c1 [Example 214]
48 | 2.99 µM | CNC(=O)c1cccc(Nc2ncnc(N3CC(Oc4ccc(C(C)(C)C)cc4)C3)n2)c1 [Example 149]
49 | 11.1 µM | CNC(=O)c1cccc(Nc2ncnc(N3CC(COCc4ccc(Cl)cc4)C3)n2)c1 [Example 241]
50 | 1.51 µM | CCNC(=O)c1cccc(Nc2ncnc(N3CC(Oc4ccc(F)cc4)C3)n2)c1 [Example 102]
51 | 3.71 µM | CNC(=O)c1cccc(Nc2ncnc(N3CC(COc4ccc(F)cc4)C3)n2)c1 [Example 163]
52 | 1.03 µM | CNC(=O)c1cccc(Nc2ncnc(N3CC(Oc4cccc(OC)c4)C3)n2)c1 [Example 80]
53 | 0.6 µM | CNC(=O)c1cccc(Nc2ncnc(N3CCN(c4cccc(C(F)(F)F)c4)CC3)n2)c1 [Example 43]
54 | 8.15 µM | CNC(=O)c1cccc(Nc2ncnc(N3CCC(Oc4ccccc4OC(F)(F)F)CC3)n2)c1 [Example 209]
55 | 4.72 µM | CNC(=O)c1cccc(Nc2ncnc(N3CC(Oc4cc(F)ccc4F)C3)n2)c1 [Example 177]
56 | 5.97 µM | CNC(=O)c1cccc(Nc2ncnc(N3CC(Oc4ccc(C(F)(F)F)cc4Cl)C3)n2)c1 [Example 194]
57 | 1.69 µM | CNC(=O)c1cccc(Nc2ncnc(N3CC(Oc4cccc(OC(F)(F)F)c4)C3)n2)c1 [Example 111]
58 | 3.1 µM | CNC(=O)c1cccc(Nc2ncnc(N3CCC(Cc4ccc(F)c(F)c4)CC3)n2)c1 [Example 151]
59 | 6.83 µM | CNC(=O)c1cccc(Nc2ncnc(N3CCN(c4ccc(F)cc4)CC3)n2)c1 [Example 198]
60 | 2.72 µM | CNC(=O)c1cccc(Nc2ncnc(N3CC=C(c4ccc(OC(F)(F)F)cc4)CC3)n2)c1 [Example 136]

same assay, conditions: human Nav1.7 stably expressed in 293 cells; whole-cell patch clamp; average IC50 from Hill fit

Row | IC50 | Structure (SMILES)
61 | 0.63 µM | CNC(=O)c1cccc(Nc2nccc(N3CC(Oc4ccc(F)cc4Cl)C3)n2)c1 [Example I, 3-((4-(3-(2-chloro-4-fluorophenoxy)-1-azetidinyl)-2-pyrimidinyl)amino)-N-methylbenzamide]
62 | 2.55 µM | CNC(=O)c1cccc(Nc2nccc(N3CC(COc4ccc(Cl)cc4)C3)n2)c1 [Example O, 3-((4-(3-((4-chlorophenoxy)methyl)-1-azetidinyl)-2-pyrimidinyl)amino)-N-methylbenzamide]
63 | 2.99 µM | CNC(=O)c1cccc(Nc2ncnc(N3CC(Oc4ccc(Cl)cc4F)C3)n2)c1 [Example Q, 3-(4-(3-(4-chloro-2-fluorophenoxy)azetidin-1-yl)-1,3,5-triazin-2-ylamino)-N-methylbenzamide]
64 | 1.55 µM | CNC(=O)c1cccc(Nc2nccc(N3CC(Oc4ccc(C(F)(F)F)cc4)C3)n2)c1 [Example C, N-methyl-3-((4-(3-(4-(trifluoromethyl)phenoxy)-1-azetidinyl)-2-pyrimidinyl)amino)benzamide]
65 | > 30 µM | CNC(=O)c1cccc(Nc2cccc(N3CC(Oc4ccc(Cl)cc4F)C3)c2)c1 [Example AG, 3-((3-(3-(4-chloro-2-fluorophenoxy)-1-azetidinyl)phenyl)amino)-N-methylbenzamide]

Row | Structure (SMILES) | IC50
66 | CNC(=O)c1cccc(Nc2nccc(N3CC(Oc4ccc(Cl)c(Cl)c4)C3)n2)c1 [Example A, 3-(4-(3-(3,4-dichlorophenoxy)azetidin-1-yl)pyrimidin-2-ylamino)-N-methylbenzamide] | 0.78 µM
67 | CNC(=O)c1cccc(Nc2nccc(N3CC(Oc4ccc(Cl)c(F)c4)C3)n2)c1 [Example K, 3-((4-(3-(4-chloro-3-fluorophenoxy)-1-azetidinyl)-2-pyrimidinyl)amino)-N-methylbenzamide] | 0.74 µM
